Data published in patent publication US9303033B2, “Pyrazolopyrimidines and related heterocycles as CK2 inhibitors” (SENHWA BIOSCIENCES, INC., priority 2009, dated 2016).
Like-named read-outs stand apart in the source and are kept apart here.

Experiments:
CK2 ααββ = CK2 ααββ (Homo sapiens (Human), UniProt P68400); test: CK2 assay (cell-free, 33P-ATP, phosphocellulose filter plate); format: biochemical
Description: Modulatory activity of compounds described herein was assessed in vitro in cell-free CK2 assays by the following method.
Reactions were maintained for 40 min at 23° C. The reactions were quenched with 100 ul of 0.75% Phosphoric acid, then transferred to and filtered through a Phosphocellulose filter plate (Millipore, MSPH-N6B-50). After washing each well 4 times with 0.75% Phosphoric acid, scintillation fluid (20 uL) was added to each well and the residual radioactivity was measured using a Wallac luminescence counter.

recombinant human PIM2 = recombinant human PIM2 (Homo sapiens (Human), UniProt Q9P1W9); test: PIM-2 assay (33P-ATP filter binding); format: biochemical
Sequence of recombinant human PIM2 (Q9P1W9 whole entry): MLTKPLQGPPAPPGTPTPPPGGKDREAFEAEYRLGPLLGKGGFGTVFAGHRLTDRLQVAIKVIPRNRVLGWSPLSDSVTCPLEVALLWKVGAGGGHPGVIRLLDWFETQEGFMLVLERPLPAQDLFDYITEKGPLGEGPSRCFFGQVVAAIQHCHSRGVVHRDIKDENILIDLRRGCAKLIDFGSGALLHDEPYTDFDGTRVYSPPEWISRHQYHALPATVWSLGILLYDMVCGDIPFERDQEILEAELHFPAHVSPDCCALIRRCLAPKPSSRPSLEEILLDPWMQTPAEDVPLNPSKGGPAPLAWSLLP
Description: Test compounds dissolved and diluted in DMSO (2 μl) were added to a reaction mixture comprising 10 μl of 5× Reaction Buffer (40 mM MOPS pH 7.0, 5 mM EDTA), 10 μl of recombinant human PIM2 solution (4 ng PIM-2 dissolved in dilution buffer (20 mM MOPS pH 7.0; EDTA 1 mM; 5% Glycerol; 0.01% Brij 35; 0.1%; 0.1% 2-mercaptoethanol; 1 mg/ml BSA)) and 8 ul of water.

MDAMB453 = test: Cell proliferation assay with Alamar Blue (AB), MDAMB453; format: cell-based
Description: (§1) A representative cell-proliferation assay protocol using Alamar Blue dye (stored at 4° C., use 20 ul per well) is described hereafter.
(§2) a. Split and trypsinize cells.
(§3) b. Count cells using hemocytometer.
(§4) c. Plate 4,000-5,000 cells per well in 100 μl of medium and seed into a 96-well plate according to the following plate layout. Add cell culture medium only to wells B10 to B12.
(§5) d. Add 100 μl of 2× drug dilution to each well in a concentration shown in the plate layout above. […] Total volume is 200 μl/well.
(§6) e. Incubate four (4) days at 37° C., 5% CO2 in a humidified incubator.
(§7) f. Add […] Alamar Blue reagent to each well.
(§8) g. Incubate for four (4) hours at 37° C., 5% CO2 in a humidified incubator.
(§9) h. Record fluorescence at an excitation wavelength of 544 nm and emission wavelength of 590 nm using a microplate reader.
(§10) In the assays, cells are cultured with a test compound for approximately four days, the dye is then added to the cells and fluorescence of […] dye is detected after approximately four hours. Different types of cells can be utilized in the assays (e.g., HCT-116 human colorectal carcinoma cells, PC-3 human prostatic cancer cells, MDA-MB231 human breast cancer cells, K-562 human chronic myelogenous leukemia (CML) cells, MiaPaca human pancreatic carcinoma cells, MV-4 human acute myeloid leukemia cells, and BxPC3 human pancreatic adenocarcinoma cells).

[1] = system: BxPC3 human pancreatic adenocarcinoma cells; test: Cell proliferation assay with Alamar Blue (AB), BxPC3; format: cell-based
Description: as §1, §2, §3, §4, §5, §6, §7, §8, §9, §10

[2] = PIM2: IC50 (5 μM ATP), 5 μM ATP
[3] = Homo sapiens, MDA-MB-453, MDAMB453 cells, read-out: AB: MDAMB453
[4] = Homo sapiens, BXPC-3, read-out: AB: BxPC3
[5] = read-out: PIM2: IC50 (5 μM ATP), 5 μM ATP

Sequence of CK2 ααββ (P68400 whole entry): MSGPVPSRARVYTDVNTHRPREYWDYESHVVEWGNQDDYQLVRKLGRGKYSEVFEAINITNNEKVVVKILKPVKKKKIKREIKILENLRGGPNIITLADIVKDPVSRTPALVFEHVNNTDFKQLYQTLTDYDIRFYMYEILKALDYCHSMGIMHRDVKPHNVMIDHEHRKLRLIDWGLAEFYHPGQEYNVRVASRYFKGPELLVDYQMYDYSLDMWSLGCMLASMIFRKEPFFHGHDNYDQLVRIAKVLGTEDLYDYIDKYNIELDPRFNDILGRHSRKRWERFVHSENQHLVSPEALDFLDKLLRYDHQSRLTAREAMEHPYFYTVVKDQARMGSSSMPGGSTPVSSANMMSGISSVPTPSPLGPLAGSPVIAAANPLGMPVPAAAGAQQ
Sequence of CK2 ααββ (P67870 whole entry partner): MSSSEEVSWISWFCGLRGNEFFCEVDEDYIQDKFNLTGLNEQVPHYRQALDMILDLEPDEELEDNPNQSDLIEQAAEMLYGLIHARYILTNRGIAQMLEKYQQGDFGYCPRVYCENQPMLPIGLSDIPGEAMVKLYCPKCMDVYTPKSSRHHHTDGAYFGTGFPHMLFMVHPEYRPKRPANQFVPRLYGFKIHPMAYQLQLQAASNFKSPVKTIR

SMILES	IC50 (CK2 ααββ)	IC50 (recombinant human PIM2; [2])	IC50 (MDAMB453; [3])	IC50 [1, 4]	also measured
O=C1NC(=O)/C(=C/c2cnn3c(NC4CC4)cc(-c4cccc(OC(F)(F)F)c4)nc23)N1 [Example T3]	< 0.01 µM	0.891 µM	0.402 µM	1.54 µM	
CC1CN(C(C)c2cccc(Nc3cc(NC4CC4)n4ncc(/C=C5\NC(=O)NC5=O)c4n3)c2)CC(C)O1 (stereo not shown) [Example G1]	< 0.01 µM	> 2.5 µM	10 µM	> 30 µM	
C=CCOc1cccc(-c2cc(NC3CC3)n3ncc(/C=C4\NC(=O)NC4=O)c3n2)c1 [Example E4]	< 0.01 µM	> 2.5 µM	1.17 µM	11.8 µM	
O=C1NC(=O)/C(=C/c2cnn3c(NC4CC4)cc(Nc4ccc(Cl)cc4)nc23)N1 [Example I1]	< 0.01 µM	> 2.5 µM	11.1 µM	15.1 µM	
O=C1NC(=O)/C(=C/c2cnn3c(NC4CC4)cc(-c4cccc(OCC(=O)N5CCCC5)c4)nc23)N1 [Example H4]	< 0.01 µM	> 2.5 µM	1.96 µM	14.5 µM	
CN(C)c1ccc(-c2cc(NC3CC3)n3ncc(/C=C4\NC(=O)NC4=O)c3n2)cn1 [Example P4]	< 0.01 µM	0.0754 µM	5.28 µM	0.549 µM	
CC(O)c1cccc(-c2cc(NC3CC3)n3ncc(/C=C4\NC(=O)NC4=O)c3n2)c1 (stereo not shown) [Example S4]	< 0.01 µM	> 2.5 µM	20 µM	4.61 µM	
O=C1NC(=S)S/C1=C\c1cnn2c(NC3CC3)cc(-c3ccnc(F)c3)nc12	< 1 µM		> 30 µM	22.7 µM	IC50 (recombinant human PIM2; 5 um ATP, read-out: PIM2: IC50 (5 um ATP)): 1.59 µM
O=C1NC(=O)/C(=C/c2cnn3c(NC4CC4)cc(-c4ccnc(F)c4)nc23)N1 [Example O4]	< 0.01 µM	> 2.5 µM	17.1 µM	1.23 µM	
O=C1NC(=O)C(=Cc2cnn3c(NC4CC4)cc(-c4csc(CNC5CCCC5)c4)nc23)N1 [Compound B14]	< 0.01 µM				IC50 (recombinant human PIM2; [5]): 1.45 µM; IC50 (MDAMB453; MDAMB453 cells, read-out: AB: MDAMB453): 1.61 µM; IC50 ([1]; read-out: AB: BxPC3): 1 µM
CC(C)N1CCN(C(=O)c2cc(-c3cc(NC4CC4)n4ncc(/C=C5\NC(=O)NC5=O)c4n3)ccc2F)CC1 [Example D5]	< 0.1 µM	> 2.5 µM	2.44 µM	1.21 µM	
O=C1NC(=O)/C(=C/c2cnn3c(NC4CC4)cc(-c4ccc(O)cc4)nc23)N1 [Example L4]	< 0.01 µM	1.47 µM	1.79 µM	0.725 µM	
O=C1NC(=O)/C(=C/c2cnn3c(NC4CCNC4)cc(Nc4cccc(Cl)c4)nc23)N1 (stereo not shown) [Example P6]			0.569 µM	1.62 µM	
O=C1NC(=O)/C(=C/c2cnn3c(NC4CCCC4)cc(Nc4cccc(Cl)c4)nc23)N1 [Example B6]			10.5 µM	> 30 µM	
CC(CNc1cc(Nc2ccc(C#N)cc2Cl)nc2c(C=C3NC(=O)NC3=O)cnn12)N1CCOCC1 (racemic) [Example 522]	< 0.01 µM				IC50 (MDAMB453; MDAMB453 cells, read-out: AB: MDAMB453 IC50): 1.52 µM; IC50 ([1]; read-out: AB: BxPC3 IC50): 10.4 µM
O=C1NC(=O)/C(=C/c2cnn3c(NC4CC4)cc(NC(=O)C4CC4)nc23)N1 [Example L2]	< 0.01 µM		4.17 µM	11 µM	
CCOCCNc1cc(Nc2cccc(Cl)c2)nc2c(/C=C3\NC(=O)NC3=O)cnn12 [Example C6]			1.14 µM	3.8 µM	
O=C1NC(=O)/C(=C/c2cnn3c(NCc4ccncc4)cc(Nc4cccc(Cl)c4)nc23)N1 [Example E6]	< 1 µM	1.33 µM			
CC(C)Oc1cccc(Nc2cc(NC3CC3)n3ncc(/C=C4\NC(=O)NC4=O)c3n2)c1 [Example M1]	< 0.01 µM	> 2.5 µM			
CN(C)CC(C)(C)CNc1cc(Nc2cccc(Cl)c2)nc2c(/C=C3\NC(=O)NC3=O)cnn12 [Example M6]	< 1 µM	> 2.5 µM			
N[C@H]1CC[C@H](Nc2cc(NC3CC3)n3ncc(/C=C4\NC(=O)NC4=O)c3n2)CC1 [Example R2]	< 0.1 µM	0.878 µM			

SMILES	IC50 (CK2 ααββ)	IC50 (recombinant human PIM2; [2])	IC50 (MDAMB453; [3])	IC50 [1, 4]	also measured
CC(O)CN1CCC(Nc2cc(Nc3cccc(Cl)c3)nc3c(/C=C4\NC(=O)NC4=O)cnn23)CC1 (stereo not shown) [Example U5]	< 1 µM	> 2.5 µM			
CS(=O)(=O)N[C@H]1CC[C@H](Nc2cc(NC3CC3)n3ncc(/C=C4\NC(=O)NC4=O)c3n2)CC1 [Example E3]	< 0.01 µM	> 2.5 µM			
Cc1c(N2CCN(c3ccccn3)CC2)nc2c(C=C3SC(=O)NC3=O)cnn2c1NC1CC1 [Example S46]	< 1 µM				PIM2: % inh […] (recombinant human PIM2; at […] compound): −19.761%
CC(Oc1nc(NC2CC2)n2ncc(C=C3NC(=O)NC3=O)c2n1)c1c(Cl)ccc(F)c1Cl (stereo not shown) [Compound L36]	< 0.01 µM				IC50 (recombinant human PIM2; read-out: PIM2: IC50): > 1 µM
O=C1NC(=O)/C(=C/c2cnn3c(NCC4(CO)CCCC4)cc(Nc4cccc(Cl)c4)nc23)N1 [Example R6]	< 1 µM	1.12 µM			
CC(=O)NC1CCC(Nc2cc(NC3CC3)n3ncc(/C=C4\NC(=O)NC4=O)c3n2)CC1 (stereo not shown) [Example D3]	< 0.01 µM				IC50 (recombinant human PIM2; [5]): 0.476 µM
O=C1NC(=O)/C(=C/c2cnn3c(NC4CC4)cc(Nc4ccccn4)nc23)N1 [Example O1]	< 0.01 µM	> 2.5 µM			
O=C1NC(=O)C(=Cc2cnn3c(NC4CC4)nc(OCc4ccccn4)nc23)N1 [Compound M36]	< 0.01 µM				IC50 (recombinant human PIM2; read-out: PIM2: IC50): > 1 µM
COc1cccc(-c2cc(NC3CC3)n3ncc(/C=C4\SC(=O)NC4=O)c3n2)c1 [Example H5]	< 0.1 µM	0.815 µM			
O=C1NC(=O)/C(=C/c2cnn3c(NC4CC4)cc(Nc4cc(F)cc(F)c4)nc23)N1 [Example N1]	< 0.01 µM	1.97 µM			
CCN1CCC(Nc2cc(Nc3cccc(Cl)c3)nc3c(/C=C4\NC(=O)NC4=O)cnn23)CC1 [Example W5]	< 1 µM	> 2.5 µM			
O=C1NC(=O)/C(=C/c2cnn3c(NCC4CC4)cc(Nc4cc(F)cc(F)c4)nc23)N1 [Example J2]	< 0.1 µM	> 2.5 µM			
O=C1NC(=O)/C(=C/c2cnn3c(NC(=O)C4CCNCC4)cc(Nc4cccc(Cl)c4)nc23)N1 [Example B1, N-(5-(3-chlorophenylamino)-3-((2,5-dioxoimidazolidin-4-ylidene)methyl)pyrazolo[1,5-a]pyrimidin-7-yl)piperidine-4-carboxamide]	< 1 µM	2.5 µM			
COc1cccc(-c2cc(NC3CC3)n3ncc(/C=C4\NC(=O)NC4=O)c3n2)c1 [Example A5]	< 0.01 µM		0.948 µM	1.74 µM	
O=C1NC(=O)/C(=C/c2cnn3c(NC4CC4)cc(Nc4ccc(F)c(Cl)c4)nc23)N1 [Example S1]	< 0.01 µM	2.04 µM			
CCOC(=O)c1cc(F)cc(Nc2cc(NCC3CC3)n3ncc(/C=C4\NC(=O)NC4=O)c3n2)c1 [Example U1]	< 0.1 µM	> 2.5 µM			
COC(=O)N[C@H]1CC[C@H](Nc2cc(NC3CC3)n3ncc(/C=C4\NC(=O)NC4=O)c3n2)CC1 [Example C3]	< 0.01 µM	0.679 µM			
O=C1NC(=O)/C(=C/c2cnn3c(NC4CC4)cc(N4CCN(c5ccccn5)CC4)nc23)S1 [Example R3]	< 1 µM	1.82 µM			
O=C1NC(=O)/C(=C/c2cnn3c(NCc4ccccn4)cc(Nc4cccc(Cl)c4)nc23)N1 [Example H6]	< 1 µM	0.421 µM			
O=C1NC(=O)/C(=C/c2cnn3c(NC4CCC4)cc(Nc4cccc(Cl)c4)nc23)N1 [Example G6]	< 1 µM	> 2.5 µM			
